In one assay the test system is Rattus norvegicus. The experiment in a line: Antiinflammatory activity in ip dosed Sprague-Dawley rat assessed as inhibition of carrageenan-induced foot paw edema measured 2 hrs post carrageenan challenge by plethysmometry. Type of assay: functional. In general terms: Carrageenan injected into the paw causes an acute inflammation.
The next assay has as its system Mus musculus. The experiment in a line: Analgesic activity in ip dosed albino Swiss mouse assessed as reduction in licking and blowing response at 58 deg C measured after 60 mins by hot plate test. As to conditions: 1 h. The format is functional. A general note: Thermal pain tests record how soon the animal reacts.
The target in assay [1] is T1, Prostaglandin G/H synthase 1 (Ovis aries, UniProt P05979).
T1 sequence (P05979 whole entry): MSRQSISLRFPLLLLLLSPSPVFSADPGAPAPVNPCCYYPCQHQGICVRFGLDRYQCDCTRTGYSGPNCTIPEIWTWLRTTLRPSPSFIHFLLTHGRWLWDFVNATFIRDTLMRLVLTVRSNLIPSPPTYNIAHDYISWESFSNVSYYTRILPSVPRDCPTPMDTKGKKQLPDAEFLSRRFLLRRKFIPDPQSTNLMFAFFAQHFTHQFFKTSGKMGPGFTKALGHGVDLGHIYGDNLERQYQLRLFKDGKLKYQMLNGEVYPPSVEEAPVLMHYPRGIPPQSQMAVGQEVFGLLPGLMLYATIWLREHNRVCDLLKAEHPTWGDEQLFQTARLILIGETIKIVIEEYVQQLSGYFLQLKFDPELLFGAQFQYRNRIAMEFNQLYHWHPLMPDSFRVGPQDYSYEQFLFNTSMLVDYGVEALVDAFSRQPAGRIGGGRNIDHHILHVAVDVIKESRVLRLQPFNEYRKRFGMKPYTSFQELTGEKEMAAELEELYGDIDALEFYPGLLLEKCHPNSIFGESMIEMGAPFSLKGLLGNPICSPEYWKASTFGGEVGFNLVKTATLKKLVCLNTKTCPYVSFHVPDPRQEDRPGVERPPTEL
The assay is described as follows: Inhibition of ovine COX1 preincubated for 5 mins followed by addition of arachidonic acid as substrate measured after 2 mins by enzyme immunoassay.

Consider 24 compounds from ChEMBL document CHEMBL3785088, “Synthesis, anti-inflammatory, analgesic and COX-1/2 inhibition activities of anilides based on 5,5-diphenylimidazolidine-2,4-dione scaffold: Molecular docking studies” (Eur J Med Chem, 2016).

One may read the ED50 as the dose at which the effect has come halfway, by size or by number of responders. Broadly, the IC50 is the concentration at which inhibition is half-maximal. Read a high IC50 as a need for much substance.

With `COc1ccc(C(=O)CN2C(=O)NC(c3ccccc3)(c3ccccc3)C2=O)cc1`, the ED50 was 155 mg/kg in the assay on Rattus norvegicus and 184 mg/kg with Mus musculus. The compound also displayed an IC50 in assay [1] of 70.5 µM.
For `COc1ccc(CNC(=O)CCN2C(=O)NC(c3ccccc3)(c3ccccc3)C2=O)cc1`, the figures for the ED50 in the assay with Rattus norvegicus and with Mus musculus were 112 mg/kg and 122 mg/kg, respectively. In assay [1], this compound showed an IC50 greater than 100 µM.
In the case of `Cc1ccc(-c2cc(C(F)(F)F)nn2-c2ccc(S(N)(=O)=O)cc2)cc1` [CELECOXIB], the ED50 in the assay on Rattus norvegicus was found to be 86.4 mg/kg; in the assay with Mus musculus, 74.1 mg/kg.
For the compound `NS(=O)(=O)c1ccc(NC(=O)CN2C(=O)NC(c3ccccc3)(c3ccccc3)C2=O)cc1`, the values for the ED50 with Rattus norvegicus and with Mus musculus were 97 mg/kg and 66.2 mg/kg, respectively. This compound also yielded an IC50 in assay [1] greater than 100 µM.
On to `O=C(CN1C(=O)NC(c2ccccc2)(c2ccccc2)C1=O)Nc1ccc(F)cc1`, for which the ED50 in the assay with Rattus norvegicus stood at 129 mg/kg; in the assay with Mus musculus it was 119 mg/kg. In assay [1], this compound had an IC50 greater than 100 µM.
For `O=C(CN1C(=O)NC(c2ccccc2)(c2ccccc2)C1=O)N/N=C/c1ccc(F)cc1`, the ED50 in the assay on Rattus norvegicus was greater than 200 mg/kg.
`COc1ccc(CNC(=O)CN2C(=O)NC(c3ccccc3)(c3ccccc3)C2=O)cc1`: the results for the median effective dose (ED50) in the assay on Rattus norvegicus and in the assay with Mus musculus were 109 mg/kg and 67.3 mg/kg, respectively. Further, in assay [1], the half-inhibitory concentration (IC50) is greater than 100 µM.
For `O=C(CCN1C(=O)NC(c2ccccc2)(c2ccccc2)C1=O)Nc1ccccc1`, in the assay on Rattus norvegicus, the ED50 is greater than 200 mg/kg.
With `COc1ccc(/C=N/N2C(=O)NC(c3ccccc3)(c3ccccc3)C2=O)cc1`, the ED50 in the assay with Rattus norvegicus was greater than 200 mg/kg.
On to `COc1ccc(/C=N/NC(=O)CN2C(=O)NC(c3ccccc3)(c3ccccc3)C2=O)cc1`, for which, in the assay on Rattus norvegicus, the ED50 was greater than 200 mg/kg.
Take `O=C(CCN1C(=O)NC(c2ccccc2)(c2ccccc2)C1=O)NCc1ccc(F)cc1`: the ED50 with Rattus norvegicus turned out to be 122 mg/kg; with Mus musculus it was 75 mg/kg. This compound gave an IC50 in assay [1] greater than 100 µM.
With `O=C(CCN1C(=O)NC(c2ccccc2)(c2ccccc2)C1=O)NCc1ccccc1`, the ED50 in the assay on Rattus norvegicus was greater than 200 mg/kg.
Turning to `O=C(CN1C(=O)NC(c2ccccc2)(c2ccccc2)C1=O)Nc1ccccc1`, in the assay on Rattus norvegicus, the median effective dose (ED50) was greater than 200 mg/kg.
`O=C(CN1C(=O)NC(c2ccccc2)(c2ccccc2)C1=O)N/N=C/c1ccccc1`: the ED50 with Rattus norvegicus is greater than 200 mg/kg.
As for `COc1cc(CNC(=O)CN2C(=O)NC(c3ccccc3)(c3ccccc3)C2=O)cc(OC)c1OC`, the median effective dose (ED50) in the assay with Rattus norvegicus is 90 mg/kg; with Mus musculus, 68.5 mg/kg. The compound further yielded a concentration for half-maximal inhibition (IC50) in assay [1] greater than 100 µM.
Regarding `COc1ccc(NC(=O)CCN2C(=O)NC(c3ccccc3)(c3ccccc3)C2=O)cc1`, the ED50 is 98 mg/kg in the assay with Rattus norvegicus and 71.1 mg/kg in the assay with Mus musculus. The same compound displayed an IC50 in assay [1] greater than 100 µM.
For `O=C(CCN1C(=O)NC(c2ccccc2)(c2ccccc2)C1=O)Nc1ccc(F)cc1`, the ED50 in the assay with Rattus norvegicus was determined as 123 mg/kg; in the assay on Mus musculus it was 80.1 mg/kg. This compound displayed an IC50 in assay [1] greater than 100 µM.
As for `COc1ccc(NC(=O)CN2C(=O)NC(c3ccccc3)(c3ccccc3)C2=O)cc1`, the ED50 in the assay with Rattus norvegicus turned out to be 120 mg/kg; with Mus musculus it was 86 mg/kg. Moreover, the half-maximal inhibitory concentration (IC50) in assay [1] was greater than 100 µM.
Regarding `O=C(CN1C(=O)NC(c2ccccc2)(c2ccccc2)C1=O)c1ccc(F)cc1`, the ED50 in the assay with Rattus norvegicus was 156 mg/kg; with Mus musculus, 142 mg/kg. In assay [1], the IC50 is 70.5 µM.
For `O=C(CN1C(=O)NC(c2ccccc2)(c2ccccc2)C1=O)NCc1ccccc1`, the ED50 with Rattus norvegicus was greater than 200 mg/kg.
Turning to `NS(=O)(=O)c1ccc(CNC(=O)CN2C(=O)NC(c3ccccc3)(c3ccccc3)C2=O)cc1`, the ED50 in the assay with Rattus norvegicus was 75 mg/kg; in the assay on Mus musculus, 54.6 mg/kg. In assay [1], this compound had an IC50 greater than 100 µM.
`O=C(CN1C(=O)NC(c2ccccc2)(c2ccccc2)C1=O)c1ccccc1`: the ED50 in the assay with Rattus norvegicus was greater than 200 mg/kg.
Regarding `NS(=O)(=O)c1ccc(NC(=O)CCN2C(=O)NC(c3ccccc3)(c3ccccc3)C2=O)cc1`, the ED50 is 75 mg/kg in the assay on Rattus norvegicus and 40.3 mg/kg in the assay on Mus musculus. In addition, the IC50 in assay [1] is greater than 100 µM.
Consider `O=C(CN1C(=O)NC(c2ccccc2)(c2ccccc2)C1=O)NCc1ccc(F)cc1`, for which the 50% effective dose (ED50) in the assay on Rattus norvegicus was 120 mg/kg; in the assay with Mus musculus, 90.9 mg/kg. This compound also showed an IC50 in assay [1] greater than 100 µM.
